From publication PMC3553014, “Albumin Stimulates the Activity of the Human UDP-Glucuronosyltransferases 1A7, 1A8, 1A10, 2A1 and 2B15, but the Effects Are Enzyme and Substrate Dependent” (PLoS ONE, 2013)
Like-named read-outs stand apart in the source and are kept apart here.

Experiments:
[1] = biological target: T1, UGT1A1 (Homo sapiens, UniProt P22309); settings: read-out: No BSA: K m or S 50 ± S.E. (95% CI)
T1 sequence (P22309 26-533): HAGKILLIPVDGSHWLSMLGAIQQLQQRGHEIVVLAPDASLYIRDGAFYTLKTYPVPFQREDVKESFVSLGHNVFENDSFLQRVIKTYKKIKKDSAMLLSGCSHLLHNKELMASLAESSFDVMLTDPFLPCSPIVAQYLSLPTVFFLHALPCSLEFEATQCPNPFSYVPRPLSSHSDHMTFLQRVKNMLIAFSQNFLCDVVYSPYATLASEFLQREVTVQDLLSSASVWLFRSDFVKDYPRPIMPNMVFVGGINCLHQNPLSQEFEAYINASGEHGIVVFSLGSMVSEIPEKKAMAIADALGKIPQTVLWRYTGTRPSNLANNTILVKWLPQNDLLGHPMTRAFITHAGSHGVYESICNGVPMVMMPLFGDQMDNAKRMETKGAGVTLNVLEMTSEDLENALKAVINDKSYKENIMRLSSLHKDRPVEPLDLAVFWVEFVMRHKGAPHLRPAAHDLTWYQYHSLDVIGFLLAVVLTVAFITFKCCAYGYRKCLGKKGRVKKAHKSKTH
Description: (§1) Recombinant human UGTs 1A1, 1A6, 1A7, 1A8, 1A10, 2A1, 2B4, 2B7 and 2B17 were expressed as His-tagged proteins in baculovirus-infected insect cells as described previously [14]. […] Protein concentrations were determined by the BCA method (Pierce Biotechnology, Rockford, IL, USA).
(§2) The protein concentrations and incubation times for the enzyme kinetic assays were selected based on preliminary assays in order to ensure that the product formation was within the linear range with respect to both protein concentration and time, and that the substrate consumption during the reaction was less than 10%. The initial velocity measurements were performed in either duplicates or triplicates and they are presented as the average values and S.E.
The HPLC system consisted of an Agilent 1100 series degasser, binary pump, 100-vial autosampler, thermostated column compartment, multiple wavelengths UV detector, and fluorescence detector (Agilent Technologies, Palo Alto, CA, USA). […] The resulting chromatograms were analyzed with Agilent ChemStation software (rev. B.01.01) on Windows XP Professional. […] The resulting chromatograms were analyzed with Empower 2 software (Build 2154, Waters, Milford, MA, USA) on Windows XP Professional operating system. The limits of detection and quantification were estimated based on signal-to-noise ratios of 3 and 10, respectively. […]

[2] = biological target: T2, UGT1A7 (Homo sapiens, UniProt Q9HAW7); assay: UGT1A7-catalyzed glucuronidation, enzyme kinetics; format: in vitro ADME
T2 construct: His-tag; made in house; host or cells: baculovirus-infected insect cells (Sf9)
T2 sequence (Q9HAW7 26-530): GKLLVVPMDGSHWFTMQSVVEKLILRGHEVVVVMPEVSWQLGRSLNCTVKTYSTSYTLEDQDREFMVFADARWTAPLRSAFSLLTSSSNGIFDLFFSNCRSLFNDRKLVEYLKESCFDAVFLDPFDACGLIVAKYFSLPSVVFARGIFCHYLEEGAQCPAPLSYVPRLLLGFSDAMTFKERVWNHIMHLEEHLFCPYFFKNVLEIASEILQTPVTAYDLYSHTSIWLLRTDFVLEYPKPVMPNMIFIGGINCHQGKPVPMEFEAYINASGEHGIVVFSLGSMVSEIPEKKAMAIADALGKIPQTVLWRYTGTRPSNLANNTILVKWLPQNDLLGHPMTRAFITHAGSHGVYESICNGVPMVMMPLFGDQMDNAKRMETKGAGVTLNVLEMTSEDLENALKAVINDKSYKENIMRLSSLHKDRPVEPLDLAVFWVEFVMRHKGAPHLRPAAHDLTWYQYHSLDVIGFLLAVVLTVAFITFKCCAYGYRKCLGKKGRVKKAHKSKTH
Description: (§3) Protein concentrations were determined by the BCA method (Pierce Biotechnology, Rockford, IL, USA).
as §2
The glucuronidation rates by recombinant enzymes are reported as “expression normalized” values. […] The “expression normalized” glucuronidation rates were calculated by dividing the measured glucuronidation rates with relative expression level of the each given recombinant UGT.
The enzyme kinetic parameters were obtained by fitting kinetic models to the experimental data using GraphPad Prism version 5.04 for Windows (GraphPad Software Inc., San Diego, CA, USA).

[3] = biological target: T3, UGT1A10 (Homo sapiens, UniProt Q9HAW8); assay: UGT1A10-catalyzed glucuronidation, enzyme kinetics; format: in vitro ADME; settings: No BSA; expression level-normalized; estradiols: 3-glucuronide formation
T3 construct: His-tag; made in house; host or cells: baculovirus-infected insect cells (Sf9)
T3 sequence (Q9HAW8 26-530): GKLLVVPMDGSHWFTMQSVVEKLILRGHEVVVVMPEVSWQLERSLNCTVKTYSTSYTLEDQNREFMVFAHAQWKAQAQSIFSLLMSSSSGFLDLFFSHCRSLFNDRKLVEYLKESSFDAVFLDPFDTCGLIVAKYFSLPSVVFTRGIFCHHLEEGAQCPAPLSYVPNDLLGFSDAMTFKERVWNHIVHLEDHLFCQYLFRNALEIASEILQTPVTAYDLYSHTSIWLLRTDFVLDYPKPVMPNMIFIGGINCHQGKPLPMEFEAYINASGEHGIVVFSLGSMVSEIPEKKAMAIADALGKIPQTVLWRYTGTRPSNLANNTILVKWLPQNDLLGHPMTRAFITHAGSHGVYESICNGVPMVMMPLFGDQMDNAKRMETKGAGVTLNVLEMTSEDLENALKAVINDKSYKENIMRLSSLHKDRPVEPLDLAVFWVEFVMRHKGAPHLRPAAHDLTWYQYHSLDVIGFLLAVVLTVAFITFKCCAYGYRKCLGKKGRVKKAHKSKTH
Description: as §1, §2
The glucuronidation rates by recombinant enzymes are reported as “expression normalized” values. The relative expression level of each recombinant UGT that was produced in our laboratory was determined using immunoblotting, as previously described [14], [19]. […] The “expression normalized” glucuronidation rates were calculated by dividing the measured glucuronidation rates with relative expression level of the each given recombinant UGT.
In assays containing BSA, the total concentrations of substrate were corrected according to the measured drug binding to BSA, under the specific conditions of each glucuronidation assay.

[4] = biological target: T4, UGT2B7 (Homo sapiens, UniProt P16662); settings: No BSA; expression level-normalized; estradiols: 17-glucuronide formation
T4 sequence (P16662 24-529): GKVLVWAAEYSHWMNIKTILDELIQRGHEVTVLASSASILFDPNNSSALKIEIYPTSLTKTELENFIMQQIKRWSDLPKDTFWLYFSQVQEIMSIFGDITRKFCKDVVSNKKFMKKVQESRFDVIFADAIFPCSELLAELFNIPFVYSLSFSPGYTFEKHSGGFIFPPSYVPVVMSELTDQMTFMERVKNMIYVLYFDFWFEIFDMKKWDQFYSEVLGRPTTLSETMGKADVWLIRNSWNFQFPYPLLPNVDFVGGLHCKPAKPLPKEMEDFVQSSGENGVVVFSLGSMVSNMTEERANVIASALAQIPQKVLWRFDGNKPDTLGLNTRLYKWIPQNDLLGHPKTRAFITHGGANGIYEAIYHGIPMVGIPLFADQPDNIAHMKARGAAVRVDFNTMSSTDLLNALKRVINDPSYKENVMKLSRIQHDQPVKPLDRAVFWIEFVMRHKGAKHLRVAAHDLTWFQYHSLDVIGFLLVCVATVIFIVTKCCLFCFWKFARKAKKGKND
Description: as §3, §2
(§4) The glucuronidation rates by recombinant enzymes are reported as “expression normalized” values. […] The dot blot assays were performed in triplicate and the average value was used for normalization. […] The “expression normalized” glucuronidation rates were calculated by dividing the measured glucuronidation rates with relative expression level of the each given recombinant UGT.
(§5) In assays containing BSA, the total concentrations of substrate were corrected according to the measured drug binding to BSA, under the specific conditions of each glucuronidation assay. The statistical significance of the difference in enzyme kinetics parameters upon BSA addition was tested with extra sum-of-squares F-test (included in the GraphPad software, [20]. The initial glucuronidation rates were fitted to the following equations:

[5] = biological target: T5, UGT2B15 (Homo sapiens, UniProt P54855)
T5 sequence (P54855 24-530): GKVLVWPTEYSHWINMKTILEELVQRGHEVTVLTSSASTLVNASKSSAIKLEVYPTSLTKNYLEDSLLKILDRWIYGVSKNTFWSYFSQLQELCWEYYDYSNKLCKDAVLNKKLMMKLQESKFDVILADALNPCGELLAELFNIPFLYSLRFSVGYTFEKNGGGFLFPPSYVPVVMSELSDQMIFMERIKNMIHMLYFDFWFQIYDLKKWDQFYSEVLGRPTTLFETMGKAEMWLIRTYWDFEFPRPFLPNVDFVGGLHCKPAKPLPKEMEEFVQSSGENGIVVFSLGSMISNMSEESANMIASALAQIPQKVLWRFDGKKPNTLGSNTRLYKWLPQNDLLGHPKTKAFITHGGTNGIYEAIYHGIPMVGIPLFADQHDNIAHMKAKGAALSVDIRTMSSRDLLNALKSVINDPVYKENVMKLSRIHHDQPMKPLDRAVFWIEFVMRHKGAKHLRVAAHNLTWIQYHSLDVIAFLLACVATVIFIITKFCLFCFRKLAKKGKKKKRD
Description: as §1, §2
(§6) The glucuronidation rates by recombinant enzymes are reported as “expression normalized” values. The relative expression level of each recombinant UGT that was produced in our laboratory was determined using immunoblotting, as previously described [14], [19]. The dot blot assays were performed in triplicate and the average value was used for normalization. […] The “expression normalized” glucuronidation rates were calculated by dividing the measured glucuronidation rates with relative expression level of the each given recombinant UGT.
as §5

[6] = biological target: T1, UGT1A1; assay: UGT1A1-catalyzed glucuronidation, enzyme kinetics; settings: No BSA; expression level-normalized; estradiols: 3-glucuronide formation
Description: as §1, §2, §6, §5

[7] = biological target: T6, UGT1A6 (Homo sapiens, UniProt P19224); assay: UGT1A6-catalyzed glucuronidation, enzyme kinetics; settings: No BSA; expression level-normalized
T6 sequence (P19224 27-532): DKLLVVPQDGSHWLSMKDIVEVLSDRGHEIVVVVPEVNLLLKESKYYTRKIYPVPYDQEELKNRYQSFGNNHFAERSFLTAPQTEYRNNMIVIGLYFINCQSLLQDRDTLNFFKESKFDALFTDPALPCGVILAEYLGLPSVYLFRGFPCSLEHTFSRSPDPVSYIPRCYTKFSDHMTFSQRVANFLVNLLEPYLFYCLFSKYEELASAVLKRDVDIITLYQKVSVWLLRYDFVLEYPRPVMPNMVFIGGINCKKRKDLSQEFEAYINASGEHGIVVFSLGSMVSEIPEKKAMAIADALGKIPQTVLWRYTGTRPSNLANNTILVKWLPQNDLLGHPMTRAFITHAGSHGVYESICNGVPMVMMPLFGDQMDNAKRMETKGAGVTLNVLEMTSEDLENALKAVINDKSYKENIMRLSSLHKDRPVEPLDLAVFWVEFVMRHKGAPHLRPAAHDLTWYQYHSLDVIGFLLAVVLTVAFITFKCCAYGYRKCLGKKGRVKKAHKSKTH
Description: as §1, §2, §6, §5

[8] = biological target: BSA (Bos taurus, UniProt P02769); assay: in vitro; settings: bovine
BSA, sequence (P02769 25-607): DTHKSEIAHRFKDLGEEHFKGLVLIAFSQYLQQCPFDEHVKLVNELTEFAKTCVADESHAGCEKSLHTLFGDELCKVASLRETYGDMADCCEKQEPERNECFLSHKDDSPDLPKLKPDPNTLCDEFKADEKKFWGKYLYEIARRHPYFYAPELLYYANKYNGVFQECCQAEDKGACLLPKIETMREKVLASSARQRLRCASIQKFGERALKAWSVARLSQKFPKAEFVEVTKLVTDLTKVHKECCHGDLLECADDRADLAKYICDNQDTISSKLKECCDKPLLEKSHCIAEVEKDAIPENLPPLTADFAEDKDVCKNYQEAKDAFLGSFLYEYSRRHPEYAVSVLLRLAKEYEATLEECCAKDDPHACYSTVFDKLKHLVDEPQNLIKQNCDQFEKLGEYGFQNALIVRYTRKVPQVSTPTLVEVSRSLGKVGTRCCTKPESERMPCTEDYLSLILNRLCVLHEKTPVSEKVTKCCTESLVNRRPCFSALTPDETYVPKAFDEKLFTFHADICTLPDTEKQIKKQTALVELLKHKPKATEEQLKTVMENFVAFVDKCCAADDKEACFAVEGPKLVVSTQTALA

[9] = Nonspecific binding to the RED device; settings: rapid equilibrium dialysis
[10] = biological target: T7, UGT2B4 (Homo sapiens, UniProt P06133); assay: UGT2B4-catalyzed glucuronidation, enzyme kinetics
T7 sequence (P06133 24-528): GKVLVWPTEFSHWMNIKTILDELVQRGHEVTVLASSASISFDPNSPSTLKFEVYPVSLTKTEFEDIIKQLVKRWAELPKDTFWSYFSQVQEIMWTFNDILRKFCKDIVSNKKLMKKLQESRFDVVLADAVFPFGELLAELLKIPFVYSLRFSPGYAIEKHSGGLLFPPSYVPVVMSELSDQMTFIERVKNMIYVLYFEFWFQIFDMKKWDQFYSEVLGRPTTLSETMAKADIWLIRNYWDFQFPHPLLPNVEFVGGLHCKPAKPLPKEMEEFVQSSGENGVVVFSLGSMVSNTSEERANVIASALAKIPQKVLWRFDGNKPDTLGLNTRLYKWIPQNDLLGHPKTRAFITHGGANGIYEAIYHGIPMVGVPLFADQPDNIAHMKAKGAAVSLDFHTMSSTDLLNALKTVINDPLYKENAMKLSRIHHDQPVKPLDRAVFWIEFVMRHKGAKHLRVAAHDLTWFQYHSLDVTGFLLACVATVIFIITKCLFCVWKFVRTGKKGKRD
Description: as §3, §2, §4, §5

[11] = Drug binding to control insect cell membranes by RED; settings: 0.2 mg/mL total protein in the membrane
[12] = test system: UGT1A9 expressed in Sf9 insect cells; settings: darexaban glucuronidation; cited from earlier work
[13] = biological target: T8, UGT2A1 (Homo sapiens, UniProt P0DTE4); assay: UGT2A1-catalyzed glucuronidation, enzyme kinetics; settings: 0.1% BSA vs no BSA
T8 sequence (P0DTE4 21-527): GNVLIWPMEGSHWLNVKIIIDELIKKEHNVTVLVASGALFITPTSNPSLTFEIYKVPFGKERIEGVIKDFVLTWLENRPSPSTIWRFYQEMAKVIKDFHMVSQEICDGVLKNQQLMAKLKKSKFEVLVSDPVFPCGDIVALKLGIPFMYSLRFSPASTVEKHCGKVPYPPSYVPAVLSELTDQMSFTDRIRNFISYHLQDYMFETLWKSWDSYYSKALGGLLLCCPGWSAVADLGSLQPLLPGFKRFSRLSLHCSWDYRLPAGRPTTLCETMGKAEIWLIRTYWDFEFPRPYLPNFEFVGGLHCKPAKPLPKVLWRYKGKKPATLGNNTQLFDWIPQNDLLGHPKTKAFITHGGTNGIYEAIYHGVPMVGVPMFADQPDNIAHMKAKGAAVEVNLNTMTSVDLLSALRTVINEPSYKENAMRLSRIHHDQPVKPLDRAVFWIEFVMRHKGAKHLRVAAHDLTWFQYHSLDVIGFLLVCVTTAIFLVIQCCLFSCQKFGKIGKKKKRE
Description: as §1, §2, §6, §5

17β-estradiol
Km [1]: 7.84 µM

Cc1cc(=O)oc2cc(O)ccc12 [4-MU, 4-Methylumbelliferone]
V max ± S.E. ([2]; No BSA, expression level-normalized): 0.25±0.01(0.22–0.28) nmol•min^–1•mg^–1 | V max ± S.E. [3]: 8.0±0.3(7.3–8.7) nmol•min^–1•mg^–1 | V max ± S.E. [4]: 0.28±0.03(0.22–0.34) nmol•min^–1•mg^–1 | V max ± S.E. ([5]; No BSA, measured rates, not expression normalized, 17α-estradiol: 3-glucuronide formation): 0.83±0.01(0.82–0.85) nmol•min^–1•mg^–1 | V max ± S.E. [6]: 0.11±0.004(0.11–0.12) nmol•min^–1•mg^–1 | V max ± S.E. [7]: 5.2±0.3(4.5–6.0) nmol•min^–1•mg^–1

Oc1ccc2cc[nH]c2c1 [6-Hydroxyindole, 6-hydroxyindole]
fraction unbound at 6 h [8]: 0.84 to 0.97 | nonspecific binding to the RED device [9]: ≤ 10% | V max ± S.E. [7]: 7.0±0.8(5.3–8.7) nmol•min^–1•mg^–1

C[C@]12CC[C@@H]3c4ccc(O)cc4CC[C@H]3[C@@H]1CC[C@H]2O [17α-Estradiol, 17α-estradiol]
V max ± S.E. [5]: 0.069±0.003(0.062–0.076) nmol•min^–1•mg^–1 | K m or S 50 ± S.E. ([5]; 0.1% BSA, substrate concentration corrected for binding to BSA, 17α-estradiol: 3-glucuronide formation): 5.58±0.56 ^***(4.24–6.74) µM | fraction unbound at 8 h [8]: 0.49 ± 0.01 | K m or S 50 ± S.E. [10]: 1.60±0.23 ^***(1.12–2.08) µM | V max ± S.E. [10]: 0.053±0.002(0.048–0.058) nmol•min^–1•mg^–1 | binding to control insect cell membrane [11]: negligible

bovine serum albumin [BSA]
V max increase on inclusion of 0.1% BSA ([2]; 0.1% BSA vs no BSA): up to 7 fold | effect of 2% BSA instead of 0.1% BSA [12]: very little effect | decrease of K m values on inclusion of 0.1% BSA [13]: up to 20 fold
